Key:
[1] = Solubility testing of tetrazolium salts in methanol and water (Table I); conditions: for solubility in methanol (in words) / solubility in water (in words): discussion of Table I
[2] = cited from earlier work
[3] = Impregnation of zwitterionic nylon fabric with tetrazolium salt and ATP; HPLC of methanol extract, extraction into aqueous impregnation solution (Example II); conditions: 1 liter remaining after aqueous ATP impregnation
Description: The solution also contained some formazan which was not quantified.
4 L×0.08 moles/L=0.32 moles of tetrazolium salt impregnated into the membrane during first treatment.
1 L×0.006 moles/L=0.006 moles extracted during aqueous impregnation.

[4] = listed as DCT tetrafluoroborate

SMILES	Solubility, Methanol [1] [m mol L]	Solubility, Water [1] [m mol L]	other results
COc1cc(-[n+]2nc(-c3ccc4c(c3)OCO4)nn2-c2nc(C(F)F)c(Cl)s2)cc(OC)c1OC [DCT PrSO3^-, 2-(4-difluoromethyl-5-chlorothiazol-2-yl)-3-(3,4,5-trimethoxyphenyl)-5-(3,4-methylenedioxyphenyl) tetrazolium]	> 650	16	
O=[N+]([O-])c1ccc(-n2nc(-c3ccccc3)n[n+]2-c2ccc(I)cc2)cc1 [INT MeSO3^-, 2-(4-iodophenyl)-3-(4-nitrophenyl)-5-phenyl tetrazolium]		35	
O=[N+]([O-])c1ccc(-n2nc(-c3ccccc3)n[n+]2-c2ccc(I)cc2)cc1 [INT Cl^-, 2-(4-iodophenyl)-3-(4-nitrophenyl)-5-phenyl tetrazolium, reference compound]		3	
COc1cc(-[n+]2nc(-c3ccc4c(c3)OCO4)nn2-c2nc(C(F)F)c(Cl)s2)cc(OC)c1OC [DCT BF4^-, 2-(4-difluoromethyl-5-chlorothiazol-2-yl)-3-(3,4,5-trimethoxyphenyl)-5-(3,4-methylenedioxyphenyl) tetrazolium]	< 16	< 0.5	solubility in methanol (in words) [1, 4]: only marginally soluble; solubility in water (in words) [1, 4]: only marginally soluble
COc1ccc(-c2nn(-c3nc4c(cc(OC)c5ccccc54)s3)[n+](-c3cc(OC)c(OC)c(OC)c3)n2)cc1 [MTM NO3^-, 2-(5-methoxynaphtho[1,2-d]thiazol-2-yl)-3-(3,4,5-trimethoxyphenyl)-5-(4-methoxyphenyl) tetrazolium]	7.6		
CN1CC[C@]23c4c5ccc(OCc6ccccc6)c4O[C@H]2[C@@H](O)C=C[C@H]3[C@H]1C5 [benzylmorphine, reference compound]			water solubility after conversion to alkyl sulphonic acid salt ([2]; U.S. Pat. No. 1,892,019, methane or ethanesulfonic acid): increased water solubility
COc1ccc(-c2nn(-c3nc4c(cc(OC)c5ccccc54)s3)[n+](-c3cc(OC)c(OC)c(OC)c3)n2)cc1 [MTM PrSO3^-, 2-(5-methoxynaphtho[1,2-d]thiazol-2-yl)-3-(3,4,5-trimethoxyphenyl)-5-(4-methoxyphenyl) tetrazolium]	100		solubility in methanol (in words) ([1]; listed as MTM propanesulfonate): substantially increased
COc1cc(-[n+]2nc(-c3ccc4c(c3)OCO4)nn2-c2nc(C(F)F)c(Cl)s2)cc(OC)c1OC [DCT EtSO3^-, 2-(4-difluoromethyl-5-chlorothiazol-2-yl)-3-(3,4,5-trimethoxyphenyl)-5-(3,4-methylenedioxyphenyl) tetrazolium]	> 600	26	
COc1cc(-[n+]2nc(-c3ccc4c(c3)OCO4)nn2-c2nc(C(F)F)c(Cl)s2)cc(OC)c1OC [DCT BzSO3^-, 2-(4-difluoromethyl-5-chlorothiazol-2-yl)-3-(3,4,5 trimethoxyphenyl)-(5-(3,4-methylenedioxyphenyl)tetrazolium benzenesulfonate]	> 550		solubility in methanol (in words) ([1]; listed as DCT benzenesulfonate): high methanol solubility; tetrazolium salt extracted from the treated membrane into remaining aqueous solution [3]: 3 mM
C=C1CC(C)C2C3Cc4ccc(O)cc4C2(CCN3CC2CCC2)C1 (stereo not drawn) [17-cyclobutylmethyl-3-hydroxy-862-methyl-6-methylene morphinane]			solubility on converting chloride salt to methanesulfonate ([2]; U.S. Pat. No. 4,334,071): enhancement of the solubility
COc1ccccc1-[n+]1nc(-c2ccc3c(c2)OCO3)nn1-c1nc(C(F)F)c(Cl)s1 [DCMT BF4^-, 2-(4-difluoromethyl-5-chlorothiazol-2-yl)-3-(2 methoxyphenyl)-5-(3,4-methylenedioxyphenyl) tetrazolium]	12.9	2.7	
COc1ccccc1-[n+]1nc(-c2ccc3c(c2)OCO3)nn1-c1nc(C(F)F)c(Cl)s1 [DCMT BuSO3^-, 2-(4-difluoromethyl-5-chlorothiazol-2-yl)-3-(2 methoxyphenyl)-5-(3,4-methylenedioxyphenyl) tetrazolium]	> 700	15	
COc1ccc(-c2nn(-c3nc4c(cc(OC)c5ccccc54)s3)[n+](-c3cc(OC)c(OC)c(OC)c3)n2)cc1 [MTM BzSO3, 2-(5-methoxynaphtho[1,2-d]thiazol-2-yl)-3-(3,4,5-trimethoxyphenyl)-5-(4-methoxyphenyl) tetrazolium]	19		solubility in methanol (in words) ([1]; listed as MTM benzenesulfonate): substantially greater than the nitrate
COc1ccccc1-[n+]1nc(-c2ccc3c(c2)OCO3)nn1-c1nc(C(F)F)c(Cl)s1 [DCMT Br^-, 2-(4-difluoromethyl-5-chlorothiazol-2-yl)-3-(2 methoxyphenyl)-5-(3,4-methylenedioxyphenyl) tetrazolium]	24	< 1	
COc1cc(-[n+]2nc(-c3ccc4c(c3)OCO4)nn2-c2nc(C(F)F)c(Cl)s2)cc(OC)c1OC [DCT Br^-, 2-(4-difluoromethyl-5-chlorothiazol-2-yl)-3-(3,4,5-trimethoxyphenyl)-5-(3,4-methylenedioxyphenyl) tetrazolium]	10	< 1	solubility in methanol (in words) ([1]; listed as DCT bromide): only marginally soluble; solubility in water (in words) ([1]; listed as DCT bromide): only marginally soluble
COc1ccccc1-[n+]1nc(-c2ccc3c(c2)OCO3)nn1-c1nc(C(F)F)c(Cl)s1 [DCMT PrSO3^-, 2-(4-difluoromethyl-5-chlorothiazol-2-yl)-3-(2 methoxyphenyl)-5-(3,4-methylenedioxyphenyl) tetrazolium]	> 760	23	
COc1ccccc1-[n+]1nc(-c2ccc3c(c2)OCO3)nn1-c1nc(C(F)F)c(Cl)s1 [DCMT PeSO3^-, 2-(4-difluoromethyl-5-chlorothiazol-2-yl)-3-(2 methoxyphenyl)-5-(3,4-methylenedioxyphenyl) tetrazolium]	> 700	2.6	
COc1cc(-[n+]2nc(-c3ccc4c(c3)OCO4)nn2-c2nc(C(F)F)c(Cl)s2)cc(OC)c1OC [DCT MeSO3^-, 2-(4-difluoromethyl-5-chlorothiazol-2-yl)-3-(3,4,5-trimethoxyphenyl)-5-(3,4-methylenedioxyphenyl) tetrazolium]	> 500	73	solubility in methanol (in words) ([1]; listed as DCT methanesulfonate): highly soluble; solubility in water (in words) ([1]; listed as DCT methanesulfonate): highly soluble
COc1ccc(-c2nn(-c3nc4c(cc(OC)c5ccccc54)s3)[n+](-c3cc(OC)c(OC)c(OC)c3)n2)cc1 [MTM MeSO3^-, 2-(5-methoxynaphtho[1,2-d]thiazol-2-yl)-3-(3,4,5-trimethoxyphenyl)-5-(4-methoxyphenyl) tetrazolium]	48		solubility in methanol (in words) ([1]; listed as MTM methanesulfonate): substantially increased
COc1ccccc1-[n+]1nc(-c2ccc3c(c2)OCO3)nn1-c1nc(C(F)F)c(Cl)s1 [DCMT MeSO3^-, 2-(4-difluoromethyl-5-chlorothiazol-2-yl)-3-(2 methoxyphenyl)-5-(3,4-methylenedioxyphenyl) tetrazolium]	> 760	248	solubility in methanol (in words) [1]: greatly enhanced; solubility in water (in words) [1]: greatly enhanced
COc1cc(-[n+]2nc(-c3ccc4c(c3)OCO4)nn2-c2nc(C(F)F)c(Cl)s2)cc(OC)c1OC [DCT NO3^-, 2-(4-difluoromethyl-5-chlorothiazol-2-yl)-3-(3,4,5-trimethoxyphenyl)-5-(3,4-methylenedioxyphenyl) tetrazolium]	22	2	solubility in methanol (in words) ([1]; listed as DCT nitrate): only marginally soluble; solubility in water (in words) ([1]; listed as DCT nitrate): only marginally soluble
